Source: US8993839B2, “Plant-based production of heterologous proteins” (The Regents of the University of California, priority 2010, dated 2015)

Molecular target: Acidothermus cellulolyticus β-1,4-endoglucanase E1 (P. pastoris-produced) (Acidothermus cellulolyticus, UniProt P54583)
Experiment: Michaelis-Menten kinetics of purified E1 (produced in P. pastoris, IMAC purified): cleavage of MUC to cellobiose and MU at various temperatures
Type: biochemical
Conditions: substrate MUC, E1 concentration by Bradford assay
Procedure: Endoglucanase activity assay: Endoglucanase (E1) cleaves methylumbelliferyl-tagged cellobiose (MUC), releasing methylumbelliferone (MU). The MU fluorescence can be measured to determine E1 activity. The relative fluorescence readings of 0.024 to 3.0 μM MU solutions were used to create a linear standard curve. Samples containing E1 were diluted so the concentration of MU released fell within the standard curve. A 60 μl aliquot of diluted supernatant was added to 540 μl of acetate buffer (200 mM acetate, pH 5.5, 100 mM NaCl) and 200 μl of substrate (500 μM MUC). 200 μl of reaction was sampled at time zero and after 30 minutes and added to 800 μl of stop buffer (150 mM glycine, pH 10). The change in fluorescence over time was measured with a VersaFluor fluorometer (Bio-Rad). Fluorescence was converted to an activity, and the specific activity reported in the literature was used to approximate the concentration of E1 in Pichia supernatants. The Michaelis-Menten kinetic parameters of purified endoglucanase were determined. The E1 was produced in P. pastoris and purified by IMAC (immobilized metal affinity chromatography). E1 cleaves the substrate (MUC) into cellobiose and a fluorophore (MU), the concentration of which can be monitored over time. When run at 65° C. and […] substrate, this is the reaction used for the activity assay for E1 in plant extracts and yeast cultures. In this set of experiments, the substrate concentration was varied to determine the kinetic parameters at different temperatures. The rate for a reaction displaying Michaelis-Menten kinetics is shown in Equation 1. The rate depends on the catalysis rate (kcat), the total enzyme concentration (ET), the adsorption/desorption rates which are lumped into the Michaelis-Menten constant (KM), and the substrate concentration (S). At high substrate concentrations (S>>KM), the rate approaches a maximum, and […] is often written as Vmax. The parameters Vmax and KM can be determined experimentally by varying the substrate concentration (S) and measuring the reaction rate (V) at each concentration. Equation 1 can be rearranged as a linear equation (Equation 2). When the reciprocal of the reaction rate (V) is plotted against the reciprocal of the substrate concentration (S), a line fitting the data points can be used to determine KM/Vmax (the slope) and 1/Vmax (y-intercept). A Bradford assay was used to determine the E1 protein concentration in each sample, and this value of ET was used to calculate the kcat values in Table 1. Table 1 depicts a summary of Michaelis-Menten parameters for E1-catalyzed degradation of MUC to MU at various temperatures.

Chain of Acidothermus cellulolyticus β-1,4-endoglucanase E1 (P. pastoris-produced) (P54583 other isoform, or with tags, fused parts or gaps): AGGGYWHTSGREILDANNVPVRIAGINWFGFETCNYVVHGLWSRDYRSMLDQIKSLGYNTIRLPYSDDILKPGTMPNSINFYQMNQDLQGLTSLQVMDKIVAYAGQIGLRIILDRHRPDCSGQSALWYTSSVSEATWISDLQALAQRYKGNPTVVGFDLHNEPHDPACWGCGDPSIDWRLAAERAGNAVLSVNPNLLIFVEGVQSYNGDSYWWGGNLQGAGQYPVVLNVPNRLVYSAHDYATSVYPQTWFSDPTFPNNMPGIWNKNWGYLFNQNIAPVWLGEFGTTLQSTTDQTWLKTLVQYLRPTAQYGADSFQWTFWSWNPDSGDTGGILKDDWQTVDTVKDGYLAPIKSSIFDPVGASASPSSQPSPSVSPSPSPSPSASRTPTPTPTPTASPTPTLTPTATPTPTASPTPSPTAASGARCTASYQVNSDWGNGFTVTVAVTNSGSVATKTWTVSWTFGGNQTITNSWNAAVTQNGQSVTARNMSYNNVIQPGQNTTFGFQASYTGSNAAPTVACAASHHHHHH

`Cc1cc(=O)oc2cc(O[C@@H]3O[C@H](CO)[C@@H](O[C@@H]4O[C@H](CO)[C@@H](O)[C@H](O)[C@H]4O)[C@H](O)[C@H]3O)ccc12` [MUC, methylumbelliferyl-tagged cellobiose] gave a kcat (50 °C) of 106 ± 5 L/min, a kcat (65 °C) of 309 ± 13 L/min and a kcat (80 °C) of 667 ± 92 L/min. For the same compound, the kcat (93 °C, uncertainty approaches 100%, not used further) was 292 ± 284 L/min.
